Test results as given in patent US20110065760A1, “COMPOUNDS FOR THE INHIBITION OF ROTAMASES AND USE THEREOF” (Jerini AG, priority 2002, published 2011).
Where two headings read alike, the source gives them in different places.

How the values were obtained:
[1] = biological target: hPin1 (Homo sapiens, UniProt Q13526); experiment: protease-coupled PPIase assay, hPin1; type: biochemical; details: 6 nM hPin1, substrate Ac-Ala-Ala-Ser(PO3H2)-Pro-Arg-pNA, trypsin, pH 7.8, 6° C.; read-out: IC50 class, Target T-1 (hPin1)
hPin1, sequence (Q13526 whole entry): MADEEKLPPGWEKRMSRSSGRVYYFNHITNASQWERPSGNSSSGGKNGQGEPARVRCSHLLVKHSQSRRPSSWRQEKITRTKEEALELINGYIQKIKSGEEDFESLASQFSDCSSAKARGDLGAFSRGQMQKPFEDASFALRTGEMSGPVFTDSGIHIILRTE

[2] = WST-1 cytotoxicity assay, Caco-2; type: cell-based; details: human, Caco-2 cells (colon adenocarcinoma); WST-1, 48 h incubation; read-out: EC50 class, cytotoxic effect, CL-4 (Caco-2)
Protocol: (§1) For this cytotoxic evaluation of the compounds the commercial available WST-1 assay (Roche) was used according to the manufacturer's instructions. The assay is based on the cleavage of the tetrazolium salt WST-1 by mitochondrial dehydrogenases found in viable cells. In general compounds were added to cells cultured in 96-well plates at 37° C. After 48 h of incubation 10 μl of WST-1 solution was added. The formazan dye was analyzed with an ELISA plate reader at (450 vs. 620) nm. CL-1: human acute myeloid leukemia, HL-60 CL-2: human cervix carcinoma, HeLa CL-3: human prostate carcinoma, PC-3 CL-4: human colon adenocarcinoma, Caco-2 CL-5: human breast adenocarcinoma, MCF-7

[3] = system: cyclin D1 in MCF-7 and HeLa cells; experiment: Cyclin D1 down regulation (western blot marker analysis); type: cell-based, human
Protocol: MCF-7 (5×10^5 cells/well) and HeLa cells (1.5×10^5 cells/well) were seeded in 6-well plates and incubated at 37° C. over night. Compounds or DMSO (final solvent concentration 0.1%) were added to the cells and incubated for different times as indicated. Subsequently, cells were lysed in RIPA buffer for 30 min on ice and centrifuged for 20 min at 4° C. After addition of electrophoresis sample buffer (4×) and 50 mM DTT to the supernatant, samples were boiled for 4 min at 95° C. Samples (equivalent to 2×10^5 cells/well) were run on a 15% SDS gel followed by blotting onto PVDF membrane.
The membrane was blocked for 1 h in 10 mM Tris (pH 7.5), 100 mM NaCl, 0.1% Tween-20 and 5% non-fat dry milk (blocking buffer) and incubated for 1 h with mouse anti-hCyclin D1 monoclonal antibody (clone DCS-6, BD Biosciences) diluted to 1 μg/ml in blocking buffer. Blots were washed 3×10 min with 10 mM Tris (pH 7.5), 100 mM NaCl, 0.1% Tween-20 (washing buffer) and incubated with 0.7 μg/ml peroxidase-conjugated sheep anti-mouse IgG (Sigma) in blocking buffer for 1 h. After washing 3×10 min with washing buffer, the plot was developed with the ECL+ detection kit (Amersham Biosciences).

[4] = biological target: LpCyp18 (Legionella pneumophila, UniProt Q5ZRZ4); experiment: biochemical; details: IC50 class, Target T-4 (LpCyp18)
LpCyp18, sequence (Q5ZRZ4 1-164): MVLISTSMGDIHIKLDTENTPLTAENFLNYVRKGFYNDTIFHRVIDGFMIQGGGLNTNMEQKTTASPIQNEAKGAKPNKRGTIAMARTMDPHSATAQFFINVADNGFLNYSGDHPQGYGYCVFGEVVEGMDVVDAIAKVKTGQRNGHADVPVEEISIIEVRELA

[5] = biological target: EcParvulin (Escherichia coli, UniProt P0A9L5); experiment: protease-coupled PPIase assay, EcParvulin; type: biochemical
EcParvulin, sequence (P0A9L5 whole entry): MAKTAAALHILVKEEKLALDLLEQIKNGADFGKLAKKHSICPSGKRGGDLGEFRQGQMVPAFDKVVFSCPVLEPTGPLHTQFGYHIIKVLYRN

[6] = biological target: hCyp18 (Homo sapiens, UniProt P62937); experiment: protease-coupled PPIase assay, hCyp18; type: biochemical; details: 10 nM hCyp18, substrate Suc-Ala-Phe-Pro-Phe-pNA, chymotrypsin, pH 7.8, 6° C.; read-out: IC50 class, Target T-3 (hCyp18)
hCyp18, sequence (P62937 whole entry): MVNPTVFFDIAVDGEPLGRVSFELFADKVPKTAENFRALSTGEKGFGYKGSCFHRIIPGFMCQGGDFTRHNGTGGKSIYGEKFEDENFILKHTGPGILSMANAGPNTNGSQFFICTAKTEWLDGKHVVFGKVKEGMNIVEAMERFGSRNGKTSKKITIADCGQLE

[7] = system: Hela cells; experiment: DAPI staining; type: cell-based, human; details: FIG. 3
Protocol: Hela cells grown on poly-L-Lys-coated coverslips were fixed with 2% paraformaldehyde/MeOH.
Cellular DNA was stained with DAPI staining buffer (100 mM Tris (pH 7.4), 150 mM NaCl, 1 mM CaCl2, 0.5 mM MgCl2, 0.1% nonidet P-40, 1 μg/ml DAPI (Molecular Probes)). All the steps were performed at room temperature, and cells were washed two times with PBS after each step. Finally, cells were mounted in 80% glycerol/PBS.

[8] = WST-1 cytotoxicity assay, HL-60; type: cell-based; details: human, HL-60 cells (acute myeloid leukemia); WST-1, 48 h incubation; read-out: EC50 class, cytotoxic effect, CL-1 (HL-60)
Protocol: as §1

[9] = biological target: hFKBP12 (Homo sapiens, UniProt P62942); experiment: protease-coupled PPIase assay, hFKBP12; type: biochemical; details: 20 nM hFKBP12, substrate Suc-Ala-Phe-Pro-Phe-pNA, chymotrypsin, pH 7.8, 6° C.; read-out: IC50 class, Target T-2 (hFKBP12)
hFKBP12, sequence (P62942 whole entry): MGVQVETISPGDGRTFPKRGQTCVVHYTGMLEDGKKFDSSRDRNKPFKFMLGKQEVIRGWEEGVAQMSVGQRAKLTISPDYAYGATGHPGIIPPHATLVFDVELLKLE

[10] = biological target: cathepsin B (Homo sapiens, UniProt P07858); experiment: cathepsin B assay; type: biochemical; details: 0.2 μg/ml cathepsin B, 2 mM Z-Arg-Arg-pNA, pH 5.8, 30° C., 30 min incubation; read-out: IC50 class, Target T-8 (Cathepsin)
Protocol: (§2) In order to investigate the impact of some of the inventive compounds on the activity of key proteases the following assay was performed: Protease activities were measured spectrophotometrically at 30° C. according to Schomburg and Salzmann (Schomburg, B.; Salzmann M. GBF: Enzyme Handbook. Springer Verlag, Berlin Heidelberg, 1991) and Bergmeyer et al. (Bergmeyer, H. U.; Bergmeyer, J.; Graβl, M. Methods of Enzymatic Analysis, Vol. V Enzymes 3: Peptides, Proteinases and Their Inhibitors. pp 55-371, VCH, Weinheim, 1988). The release of 4-nitroaniline was determined at 390 nm with a Spectramax Plus UV/Vis spectrophotometer (Molecular Devices). The cathepsin B assay was performed in a reaction mixture containing 0.2 μg/ml cathepsin B, 2 mM Z-Arg-Arg-pNA in 88 mM KH2PO4, 12 mM Na2HPO4, 1.33 mM EDTA, 0.03% Brij 35 (pH 5.8). The trypsin assay was carried out in a reaction mixture containing 0.1 μg/ml trypsin and 120 μM Ac-Ala-Ala-Ser(PO3H2)-Pro-Arg-pNA in 35 mM HEPES (pH 7.8) and the papain assay in a mixture consisting of 16 μg/ml papain and 2 mM Bz-DL-Arg-pNA in 10 mM Na2HPO4, 2 mM L-Cys, 5 mM EDTA (pH 6.5). In general, reactions were started by addition of peptide substrate after a 30 min incubation of 1-100 μM effector with given concentrations of enzyme.

[11] = biological target: T1, Papain (Carica papaya, UniProt P00784); experiment: papain assay; type: biochemical; details: 16 μg/ml papain, 2 mM Bz-DL-Arg-pNA, pH 6.5, 30° C., 30 min incubation; read-out: IC50 class, Target T-6 (Papain)
T1 sequence (P00784 134-345): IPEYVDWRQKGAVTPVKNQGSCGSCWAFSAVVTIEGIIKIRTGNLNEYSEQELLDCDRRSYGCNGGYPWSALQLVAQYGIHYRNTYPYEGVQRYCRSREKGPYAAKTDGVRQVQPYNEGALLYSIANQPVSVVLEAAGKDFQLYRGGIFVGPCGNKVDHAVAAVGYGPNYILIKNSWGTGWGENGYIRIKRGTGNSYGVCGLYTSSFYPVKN
Protocol: as §2

[12] = WST-1 cytotoxicity assay, MCF-7; type: cell-based; details: human, MCF-7 cells (breast adenocarcinoma); WST-1, 48 h incubation; read-out: EC50 class, cytotoxic effect, CL-5 (MCF-7)
Protocol: as §1

[13] = system: tumor cell lines (HL-60, HeLa, PC-3, Caco-2, MCF-7); experiment: WST-1 cytotoxicity assay, tumor cell lines (panel statement); type: cell-based, human; details: WST-1, 48 h; table 4
Protocol: as §1

[14] = WST-1 cytotoxicity assay, PC-3; type: cell-based; details: human, PC-3 cells (prostate carcinoma); WST-1, 48 h incubation; read-out: EC50 class, cytotoxic effect, CL-3 (PC-3)
Protocol: as §1

[15] = WST-1 cytotoxicity assay, HeLa; type: cell-based; details: human, HeLa cells (cervix carcinoma); WST-1, 48 h incubation; read-out: EC50 class, cytotoxic effect, CL-2 (HeLa)
Protocol: as §1

[16] = biological target: T2, Trypsin (UniProt P00760); experiment: trypsin assay; type: biochemical; details: 0.1 μg/ml trypsin, 120 μM Ac-Ala-Ala-Ser(PO3H2)-Pro-Arg-pNA, pH 7.8, 30° C., 30 min incubation; read-out: IC50 class, Target T-7 (Trypsin)
T2 sequence (P00760 1-246): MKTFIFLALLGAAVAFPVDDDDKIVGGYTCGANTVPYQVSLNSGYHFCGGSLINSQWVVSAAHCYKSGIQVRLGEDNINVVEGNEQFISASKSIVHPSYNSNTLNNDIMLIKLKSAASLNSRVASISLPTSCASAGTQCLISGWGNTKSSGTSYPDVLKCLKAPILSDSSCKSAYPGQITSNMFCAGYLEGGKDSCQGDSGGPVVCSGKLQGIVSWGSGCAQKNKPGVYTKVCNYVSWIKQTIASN
Protocol: as §2

[17] = 20 nM EcParvulin, substrate Suc-Ala-Phe-Pro-Phe-pNA, chymotrypsin, pH 7.8, 6° C., read-out: IC50 class, Target T-5 (EcParv)

| SMILES | IC50 [1] | EC50 at 48 h [2] | cyclin D1 down regulation [3] | IC50 [4] | IC50 [5, 17] | IC50 [6] | induction of apoptosis (DAPI staining, fluorescence microscopy) [7] | EC50 at 48 h [8] | IC50 [9] | IC50 [10] | IC50 [11] | EC50 at 48 h [12] | cytotoxic effect on the tumor cell lines tested [13] | EC50 at 48 h [14] | EC50 at 48 h [15] | IC50 [5] | IC50 [16] |
| --- | --- | --- | --- | --- | --- | --- | --- | --- | --- | --- | --- | --- | --- | --- | --- | --- | --- |
| CC(C)(C)CC(C)(C)NC(=O)Nc1cc(Cl)cc(Cl)c1O [Compound 30] | 1 to 10 µM | < 10 µM | particular relevance | > 100 µM | > 100 µM | > 100 µM | induce apoptosis | < 10 µM | > 100 µM |  |  |  |  |  |  |  |  |
| Cc1c(Cl)cc(NCc2ccco2)c(O)c1Cl [Compound 646] |  |  |  |  |  |  |  |  |  | > 100 µM | > 100 µM |  |  |  |  |  |  |
| Cc1c(Cl)cc(NC(=O)NCCCCCCNC(=O)Nc2cc(Cl)c(C)c(Cl)c2O)c(O)c1Cl [Compound 673] | < 1 µM |  | particular relevance |  |  |  |  |  |  |  |  | < 10 µM | particular relevance |  |  |  |  |
| Cc1c(Cl)cc(NCc2cccc(Oc3ccccc3)c2)c(O)c1Cl [Compound 497] |  |  |  |  |  |  |  |  |  | 10 to 50 µM | > 100 µM |  |  |  |  |  |  |
| Cc1c(Cl)cc(NC(=S)Nc2ccccc2C(F)(F)F)c(O)c1Cl [Compound 261] |  | 10 to 50 µM |  |  |  |  |  | < 10 µM |  |  |  | 10 to 50 µM |  | 10 to 50 µM | 10 to 50 µM |  |  |
| Cc1c(Cl)cc(NC(=O)CC(C)CC(C)(C)C)c(O)c1Cl (stereo not drawn) [Compound 599] | 1 to 10 µM |  |  | 50 to 100 µM |  | > 100 µM |  |  | > 100 µM | 50 to 100 µM | > 100 µM |  |  |  |  | 10 to 50 µM |  |
| Cc1c(Cl)cc(NCc2ccccc2C(F)(F)F)c(O)c1Cl [Compound 649] |  |  |  |  |  |  |  |  |  | 50 to 100 µM | > 100 µM |  |  |  |  |  |  |
| CC(C)=CC(=O)Nc1cc(Cl)c(O)c(Cl)c1 [Compound 1296] | 1 to 10 µM |  |  | > 100 µM |  | 10 to 50 µM |  | 50 to 100 µM | > 100 µM | > 100 µM | > 100 µM |  |  |  |  | 10 to 50 µM | > 100 µM |
| CC(C)(C)CC(C)(C)NC(=O)Nc1cc(Cl)c(O)c(Cl)c1 [Compound 703] | < 1 µM | 10 to 50 µM |  | > 100 µM |  | > 100 µM |  | 10 to 50 µM | > 100 µM | > 100 µM | > 100 µM |  | particular relevance | 10 to 50 µM | 10 to 50 µM | 1 to 10 µM | 50 to 100 µM |
| O=C(Nc1cc(Cl)cc(Cl)c1O)c1ccc(-c2ccccc2)cc1 [Compound 645] |  |  |  |  |  |  |  | < 10 µM |  |  | > 100 µM | < 10 µM | particular relevance | < 10 µM | < 10 µM |  |  |
| Oc1ccc(NCc2ccccc2Sc2ccc(Cl)cc2)c(O)c1 [Compound 1044] | < 1 µM |  |  | 1 to 10 µM | 10 to 50 µM | 10 to 50 µM |  | 10 to 50 µM | 10 to 50 µM |  |  |  | particular relevance | 10 to 50 µM | 10 to 50 µM |  |  |
| CC(CC(=O)Nc1cc(Cl)c(O)c(Cl)c1)CC(C)(C)C (stereo not drawn) [Compound 1273] | < 1 µM | 10 to 50 µM |  | > 100 µM |  | > 100 µM |  | 10 to 50 µM | > 100 µM | > 100 µM | > 100 µM |  | particular relevance | 10 to 50 µM | 50 to 100 µM | 1 to 10 µM | > 100 µM |
| Oc1c(NCc2ccccc2Sc2ccc(Cl)cc2)ccc(F)c1F [Compound 399] | < 1 µM |  | particular relevance | 50 to 100 µM |  | 50 to 100 µM | induce apoptosis | < 10 µM | > 100 µM | 10 to 50 µM | > 100 µM | < 10 µM | particular relevance | < 10 µM | < 10 µM | 10 to 50 µM |  |
| CC(C)NC(=S)Nc1cc(-c2nc3ccccc3s2)cc(Cl)c1O [Compound 639] | < 1 µM |  | particular relevance |  |  |  |  | < 10 µM |  |  |  | 10 to 50 µM |  |  |  |  |  |
